# Legend:
# melanoma-16 = test: Example 8: mice inoculated with melanoma-16; format: in vivo; settings: for surviving mice in which no blastomas were ascertained / surviving mice with blastomas of approximately 0.3×0.2 mm: 36th day, 5 mg as a drink; for mice with isolated pulmonal metastases at dissection: surviving mice killed on the 36th day
# [1] = molecular target: T1, β-amyloid (protein) of the blood plasma (Homo sapiens, UniProt P05067); test: Example 4: β-amyloid of the blood plasma in test tube; format: biochemical
# T1 construct: Into a test tube with β-amyloid (protein) of the blood plasma (pH=7.4); from tissue; host or cells: blood plasma
# Method: Into a test tube with β-amyloid (protein) of the blood plasma (pH=7.4) with a concentration of 0.1 mmol/ml, three drops of 0.1% sodium salt aqueous solution (called O.F.1) are introduced. The test tube was thermostatically controlled at a temperature of 37° C. After 15 minutes, the protein concentration and the pH value of the blood plasma were measured. The protein concentration amounted to 0.03 mmol/ml, and the pH value amounted to 7.2.
# [2] = system: filtrate formed from melanoma 16; test: Example 6: filtrate from melanoma 16 in the polarisation microscope; settings: filtrate with the preparation; without it the light polarization is slight
# Method: A filtrate formed from melanoma 16 (10 ml) was accommodated in a quartz vessel and detected in the polarisation microscope. Thereafter, sodium salt (O.F.1) was introduced into the filtrate, and a repeat detection was carried out in the polarisation microscope.
# [3] = system: cancer cells PC-3 (prostate carcinoma); test: Example 1: mitochondrial membranes of cancer cells PC-3 in test tubes; format: cell-based; settings: PC-3, dilution 10^−5 mmol/l, 24 hours at 37° C.
# Method: After thermostatically controlling the aforementioned test tubes in the course of 24 hours at a temperature of 37° C., the contents were analyzed.
# [4] = system: plasma of the blood of a sarcoma patient; test: Example 5: plasma of a sarcoma patient in the polarisation microscope; settings: plasma with aqueous solution of the salt; dried plasma without it: light diffusion
# Method: The blood of a sarcoma patient (10 ml) was centrifuged. A proportion of plasma was dried and detected in the polarisation microscope. Into the remaining proportion of plasma, an aqueous solution of lithium salt of MCPA acid was introduced, and the mixture was also detected in the polarization microscope.
# [5] = molecular target: T2, Transthyretin (protein) of the blood plasma (Homo sapiens, UniProt P02766); test: Example 3: Transthyretin of the blood plasma in test tube; format: biochemical
# T2 construct: Transthyretin (protein) of the blood plasma; from tissue; host or cells: blood plasma
# Method: Into a test tube (10 ml) with Transthyretin (protein) of the blood plasma (pH=7.0) in a concentration of 0.05 mmol/ml, four drops of 0.1% MCPA aqueous solution were introduced. The test tube was thermostatically controlled at a temperature of 37° C. After 15 minutes, the concentration of Transthyretin and the pH value of the blood plasma were measured. Transthyretin was not found, and the pH value was 6.0.
# hepatitis C = test: Example 12: patient N., hepatitis C, hepatargy and ascites, symptoms and blood counts; format: in vivo, human; settings: after 2 weeks (250 mg twice a day)
# [6] = system: adenocarcinoma of the prostate gland; test: Example 9: patient K., adenocarcinoma of the prostate gland, ultrasound, PSA and blood counts; format: in vivo, human; set-up: prostate had become smaller by (ultrasound): dose or concentration left out as unconfirmed
# Method: An ultrasound test on 8 Aug. […] A PSA test on 8 Aug.
# The patient declined an operation and chemotherapy. The patient was treated with the drug. On 9 Aug. […] The treatment lasted 10 days.
# T1 sequence (P05067 672-711 limits assumed): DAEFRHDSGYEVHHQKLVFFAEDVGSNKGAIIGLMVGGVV
smiles,measurement,setting,value
Cc1cc(Cl)ccc1OCC(=O)[O-].[Na+] [O.F.1],surviving mice in which no blastomas were ascertained,melanoma-16,one
same,surviving mice with blastomas of approximately 0.3×0.2 mm,melanoma-16,8 mice
same,mice died on the 23rd day,melanoma-16; single dose of 5 mg as a drink,one
same,mice died on the 26th day,melanoma-16; single dose of 5 mg as a drink,one
same,mice died on the 30th day,melanoma-16; single dose of 5 mg as a drink,1 mice
same,mice with isolated pulmonal metastases at dissection,melanoma-16,4 mice
same,pH value of the blood plasma,"[1]; after 15 minutes at 37° C., initial pH=7.4",7.2
same,protein (β-amyloid) concentration,"[1]; three drops of 0.1% aqueous solution, 37° C., after 15 minutes, initial 0.1 mmol/ml",0.03 mmol/mL
same,observation in the polarisation microscope,[2],pronounced polarization
"COc1cccc2c1C(=O)c1c(O)c3c(c(O)c1C2=O)C[C@@](O)(C(=O)CO)C[C@@H]3O[C@H]1C[C@H](N)[C@H](O)[C@H](C)O1 [Adriamycin, reference compound]",mice alive on the 36th day of the test,melanoma-16; single dose of 5 mg as a drink,2 mice
same,mitochondrial membranes of cancer cells (appearance),[3],membrane swelling
Cc1cc(Cl)ccc1OCC(=O)[O-].[Li+] [lithium salt of MCPA acid],observation in the polarisation microscope,[4],double refraction of rays
Cc1cc(Cl)ccc1OCC(=O)O [4-chlorine-2-methyl phenoxyacetic acid],pH value of the blood plasma,"[5]; after 15 minutes at 37° C., initial pH=7.0",6.0
same,concentration of Transthyretin,"[5]; four drops of 0.1% aqueous solution, 37° C., after 15 minutes, initial 0.05 mmol/ml",not found
same,Albumin,hepatitis C; before treatment 2.0,4.7 g/dL
same,Bilirubin,hepatitis C; before treatment 2.9,1.7 mg/dL
same,Aspart aminotransferasis,hepatitis C; before treatment 73.0,51.0 units/l
same,Alanine aminotransferasis,hepatitis C; before treatment 77.0,71.4 units/l
same,Gammaglutamyl transferasis,hepatitis C; before treatment 129.0,82.0 units/l
same,Lactate dehydrogenasis,hepatitis C; before treatment 543.5,335.0 units/l
same,surviving mice in which no blastomas were ascertained,melanoma-16,3 mice
same,surviving mice with blastomas of approximately 0.3×0.2 mm,melanoma-16,3 mice
same,mice died on the 23rd day,melanoma-16; single dose of 5 mg as a drink,2 mice
same,mice with isolated pulmonal metastases at dissection,melanoma-16,2 mice
same,pains during urination,[6]; 10 days of treatment,became less
same,prostate had become smaller by (ultrasound),"[6]; 10 days, before approximately 90 cm^3",30%
